Test results published in patent publication US20160108135A1, “GHRELIN IN THE DIAGNOSIS OF CNS DISORDERS” (priority 2013, published 2016).
Entries after “also recorded” stand apart in the source; their conditions may differ. Ends that are not written are not given here. * marks the point of attachment. Octanoyl = CCCCCCCC(=O)*

Key:
[1] = system: Ghsr; conditions: cited from earlier work
[2] = system: dividing cells (Ki67+) in the sub-granular zone of the dentate gyrus; test: Ki67 cell proliferation in hippocampal dentate gyrus of wild-type and ghsr-/- mice; assay type: in vivo; conditions: i.v. 48 μg/day for 7 days; for Ki67+ cells (cell proliferation) in the DG of adult wild-type mice: vs saline
Protocol: To further examine the role of ghrelin in enhancing cell proliferation in the SGZ, the effect of peripherally administered ghrelin in both wild-type and ghrelin-receptor null (ghsr^−/−) mice (Zigman et al. J. Clin. Invest (2005)115 (12:3564-72)) was analysed.
Adult growth hormone secretagogue receptor (GHSR)-null mice (8-10 weeks-old) and their wild-type littermates were used. These were derived from crosses between animals that were heterozygous for the GHSR-null allele and that had been backcrossed >10 generations onto a C57BL6/J genetic background. Metabolic aspects of these mice have been published (Davies et al. 2009 Molecular Endocrinology, 23(6), 914-24.).
Ghrelin was administered peripherally via an intravenous osmotic mini-pump at a rate of 1 μl/hour with a total of 48 μg/day to groups of 6 mice. Control groups were given peripheral saline.
After 7 days, mice were killed by cervical dislocation whole brain was removed and immediately snap frozen on dry ice.
(§1) Cell proliferation in the hippocampal dentate gyms was subsequently analysed using a one-in-fifteen series of 10 μm sections (150 μm apart) from each animal. These were stained for Ki67 immunofluorescence and a primary antibody rabbit anti-Ki67 (1:500 Abcam) applied. Immunolabelled cells were counted throughout the rostro-caudal extent of the granule cell layer and quantified.
(§2) Immunolabelled cells were counted bilaterally using a ×40 objective (Zeiss Axioscope) throughout the rostro-caudal extent of the granule cell layer (GCL). Resulting numbers were divided by the number of coronal sections analyzed and multiplied by the distance between each section to obtain an estimate of the number of cells per hippocampus (and divided by 2 to obtain the total per dentate gyms).
All experiments and analyses were performed blind to genotype and treatment.
Statistical analyses were carried out using GraphPad Prizm 6.0 for Mac. Statistical significance was assessed by unpaired two-tailed Student's t-test or one-way ANOVA with Bonferroni's post-hoc test unless described otherwise: *, P<0.05; **, P<0.01; ***, P<0.001.
(§3) To determine whether unacylated-ghrelin (UAG) regulates NSPC plasticity, cell proliferation and immature neurons were quantified in wild-type mice following either peripheral administration of saline or UAG (i.v, 48 μg/day, n=6/group) for 7-days. The method was similar to that described in Example 1.

[3] = system: immature DCX+ neurons within the SGZ; test: Immature DCX+ neurons in the SGZ of wild-type mice; assay type: in vivo; conditions: i.v. 48 μg/day for 7 days, vs vehicle
Text: as §1, §2, §3

[4] = rats; 10 μg/kg i.p; cited from earlier work
[5] = system: spatial pattern separation; test: Spontaneous location recognition (SLR) task, spatial pattern separation; assay type: in vivo, rat; conditions: rats, 10 μg/kg i.p daily days 1-14, tested days 22-26
Protocol: A) Experimental paradigm B) Schematic of Spontaneous location recognition (SLR) task. During a sample phase animals were exposed to 3 identical objections (two were located close together (small separation) or very close together (X-small separation) and the 3rd was further away) for 10 minutes. 24 hours later the rats were exposed to 2 of the objects during the test phase and the time spent exploring each object was measured. Dotted objects indicate the original location during the sample phase. C) Discrimination ratios during the test phase for ‘novel’ conditions in the SLR task. […] D) Representative images of the new adult-born DG neurons (white arrows) co-expressing NeuN^+ and BrdU^+. […] Scale bar=100 μm.
(§4) Adult male Lister-hooded rats (n=12/group) were given daily injections of either saline or ghrelin (10 μg/kg i.p) (days 1-14) and BrdU (50 mg/kg i.p) on days 5-8 prior to analysis of spatial pattern separation using a spontaneous location recognition task (SLR) on days 22-26.
To reduce/avoid the acute LTP-mediated effects on pattern separation the final injection of ghrelin was given 7 days before the start of cognitive testing.

[6] = system: adult rat hippocampus; test: BrdU+ cell proliferation in adult rat hippocampus after 7-day i.v. infusion (FIG. 1A); assay type: in vivo; conditions: 7-day i.v. infusion 80 μg/day; BrdU 50 mg/kg i.p 30 minutes prior to brain collection; vs vehicle
[7] = system: new adult-born DG neurons; test: New adult-born neurons (BrdU+/NeuN+) and neuroblasts (DCX+) in rat DG; assay type: in vivo; conditions: rats; for total number of new adult-born neurones (BrdU+/NeuN+) in the DG: 10 μg/kg i.p daily days 1-14, BrdU days 5-8, vs saline
Protocol: as §4
Animals were anesthetized with sodium pentobarbital and perfused transcardially with 0.9% NaCl solution, followed by 4% paraformaldehyde (PFA) in 0.1M phosphate buffer, pH 7.4. Brains were post-fixed in 4% PFA for 24 h, and cryoprotected in 30% sucrose for 24 h. The brains were then sectioned on a freezing-stage microtome into a 30 μm thick coronal section series. Immunohistochemical staining was performed on free-floating sections.
For detection of BrdU, sections were pre-treated with 2N HCl for 30 mins at 37° C. and washed in 0.1 M borate buffer, pH8.5, for 10 min. Immunofluorescent double-labeling was performed.
Primary antibodies used were: mouse anti-BrdU (1:50 AbD Serotec, UK), goat anti-doublecortin (Santa Cruz Biotechnology, USA), mouse anti-NeuN (Chemicon, Temecula, Calif., USA). Sections were also stained with Hoechst (Invitrogen) and mounted with prolong-gold anti-fade reagent (Invitrogen).
A one-in-twelve series of 30 μm sections (360 μm apart) from each animal was immunohistologically stained (as described in Example 1 above) and analysed by fluorescent and/or confocal microscopy. Immunolabelled cells were counted also as described in Example 1. Only cells with complete/strong BrdU immunoreactivity, oval nuclei, were counted.

Substance	binding or activation of Ghsr [1]	Ki67+ cells (cell proliferation) in the DG of adult wild-type mice [2]	number of immature DCX+ neurons within the SGZ [3]	food intake [4]	Ki67+ cells (cell proliferation) in the DG of ghsr-/- mice ([2]; ghrelin-receptor null (ghsr-/-) mice)	Ki67+ cells (cell proliferation) in the DG of adult wild-type mice ([2]; listed as Ghrelin)	SLR task, discrimination of 'novel' location, X-small separation condition (pattern separation) [5]	SLR task, discrimination of 'novel' location, small separation condition [5]	SLR task, discrimination of 'novel' location, X-small separation condition (pattern separation) ([5]; listed as acyl-ghrelin)	number of BrdU+ cells in adult rat hippocampus [6]	total number of new adult-born neurones (BrdU+/NeuN+) in the DG [7]	total number of new adult-born neurones (BrdU+/NeuN+) in the DG ([7]; listed as Ghrelin)	total number of new adult-born neurones (BrdU+/NeuN+) in the DG ([7]; listed as acyl-ghrelin)	DG neuroblast number (DCX+) ([7]; 14 days after the final injection, data not shown)
UAG: unacylated-ghrelin, the de-acylated form of ghrelin (GSSFLSPEHQRVQQRKESKKPPAKLQPR; Ghrelin-28 unacylated; UniProt Q9UBU3 24-51, looked up)	does not bind or activate Ghsr	impairments observed in hippocampal cell proliferation; also recorded: reduced the number of dividing cells; also recorded: attenuated hippocampal cell proliferation	impairments; also recorded: reduced; also recorded: significant reduction in the number of immature DCX^+ neurons											
ghrelin: gut hormone, 28 amino acid peptide with octanoyl modification on Ser-3; endogenous ligand of GHS-R 1a (GSS(Octanoyl)FLSPEHQRVQQRKESKKPPAKLQPR; UniProt Q9UBU3 24-51, looked up)		increased Ki67^+ cells		increase food intake	no corresponding increase was observed; also recorded: inhibited the proliferative effect of ghrelin	significant increase in cell proliferation	only ghrelin treated rats showed enhanced exploratory behaviour; also recorded: able to distinguish between very similar spatial locations	enhanced exploratory behaviour for the ‘novel’ location in the small separation condition; also recorded: able to distinguish similar but distinct spatial locations	improved pattern separation learning	increased the number of BrdU^+ cells	significantly increased	significantly increased the number of new adult-born neurons	increased the number of new adult born neurons	remained significantly higher
